In US11958821B2, “Phenethylamine compounds salts, polymorphic forms and methods of use thereof” (Terran Biosciences Inc., priority 2021, dated 2024):

Assays:
Male Sprague-Dawley rats = assay: Rat elevated zero-maze study with racemic MBDB, R-MBDB, S-MBDB and chlordiazepoxide; conditions: for Dose showing a switch to an anxiolytic effect (magnitude of the reduction in SAPs): ip
Source text: Two opposite quadrants are enclosed by Perspex walls on both the inner and the outer edges of the platform, while the remaining two opposite quadrants are open being enclosed only by a Perspex “lip”. Animals will show a preference for the closed areas, and avoidance of the open sections is assumed to stem from a rodent's natural aversion to open, exposed spaces. A reduction in the amount of activity on the open areas is considered to reflect an increase in anxiety. The ethologically-based behavior stretched attend postures (SAP) from closed to open quadrants is assessed as an index of anxiety. […] Animals
Male Sprague-Dawley 200-250 g (Envigo UK) rats were used. Animals were group-housed (5 per cage; cage size: 40×40×20 cm) in a temperature-controlled environment (22±2° C.), under a 12 h light-dark cycle (lights on: 08:00 hours) for one week prior to testing. Food and water were freely available. Number of animals per group=5.
The elevated 0-maze comprises a black Perspex annular platform (105 cm diameter, 10 cm width) elevated to 65 cm above ground level, divided equally into four quadrants. Two opposite quadrants are enclosed by clear red Perspex walls (27 cm high) on both the inner and outer edges of the platform, while the remaining two opposite quadrants are surrounded only by a Perspex “lip” (1 cm high) which serves as a tactile guide to animals on these open areas.
Subjects were weighed and tail marked before being injected. After a specified pretreatment time, subjects were placed in a closed quadrant and a 5-min test period were recorded on videotape for subsequent analysis. The maze was cleaned with 5% methanol/water solution and dried thoroughly between test sessions. Behavioural measures comprise percentage time spent on the open areas (% TO) and frequency of stretched attend postures (SAP) from closed to open quadrants. Since the control groups were all treated identically with the same vehicle these were combined to increase power. The Chlordiazepoxide groups were also treated identically with the same dose so these were also combined to increase power. Animals are scored as being in the open area when all four paws were in an open quadrant and in the closed area only when all four paws have passed over the open-closed divide.
Thirty min later at T=0, rats were individually placed in a closed arm of the zero-maze and behavior assessed by a “blind” observer using remote video monitoring over the subsequent 5 min. The animals were then removed and the maze carefully wiped with 5% methanol/water solution before the next test was begun.
Thirty min later at T=0, rats were individually placed in a closed arm of the zero-maze and behavior was assessed by a “blind” observer using remote video monitoring over the subsequent 5 min. The animal were then removed and the maze carefully wiped with 5% methanol/water solution before the next test was begun.
Thirty min later at T=0, rats were individually placed in a closed arm of the zero-maze and behavior was assessed by a “blind” observer using remote video monitoring over the subsequent 5 min.

[1] = test system: participants diagnosed with at least moderate post-traumatic stress disorder (PTSD); assay: Double-blind, randomized, placebo-controlled clinical trial of MBDB-assisted psychotherapy in PTSD; type: in vivo, human; conditions: for Change in CAPS-5 assessment: Study Conclusion, hydrochloride salt with psychotherapy; for Change in CAPS-5 assessment / Clinician-rated functional impairment score (SDS) / Depression (HAM-D): vs placebo; for Daytime sleepiness (ESS): human, in vivo; for Total dosage of drug to achieve significant mean reduction in CAPS-5: vs racemic MBDB-treated subgroup
Procedure: A multicenter, randomized, double-blind, placebo-controlled trial is conducted to assess the efficacy and safety of MBDB-assisted psychotherapy versus psychotherapy with placebo control in participants diagnosed with at least moderate post-traumatic stress disorder (PTSD).
This multicenter, randomized, double-blind, placebo-controlled trial is conducted at various sites in the United States with IRB approval from each study site. A flexible dose of MBDB hydrochloride salt or placebo, followed by a supplemental half-dose unless contraindicated by patient's previous response or medical history, is also administered during the Treatment Period with psychotherapy in at least 3 blinded monthly Experimental Sessions. The Supplemental Dose extends the duration of drug effects on the participants during an Experimental Session. MBDB test groups are further subdivided into specific groups receiving only racemic MBDB hydrochloride salt, S-MBDB hydrochloride salt, or R-MBDB hydrochloride salt. An optional Risk Evaluation and Mitigation Strategy (REMS) Protocol may be implemented for the racemic MBDB, S-MBDB, R-MBDB, and placebo-groups. The Treatment Period lasts for approximately 12 weeks. During the Treatment Period, each Experimental Session is followed by three Intervening Sessions of non-drug psychotherapy. Each Experimental Session involves an overnight stay. The Primary Outcome measure, the change in Clinician Administered PTSD Scale for DSM-5 (CAPS-5), is determined by a blinded Independent Rater (IR) pool multiple times throughout the study. The study consists of separate periods for each participant. Initially, prospective participants undergo a Screening Period involving an initial eligibility assessment, a medical history intake, informed consent, and enrollment of eligible participants. Next, a Preparation Period is undertaken for enrolled participants involving medication tapering and clinical baseline assessments to confirm each participant meets enrollment criteria. As part of the Preparation Period, a detailed assessment of co-morbidities to PTSD is recorded. Participants may remain on prescribed courses of selective serotonin reuptake inhibitor (SSRI) or serotonin and norepinephrine reuptake inhibitor (SNRI) treatment. Dosages and/or frequency of administration of a prescribed SSRI or SNRI may be adjusted to fit within study parameters. Participants may be required to taper a prescribed course of medication in order to maintain eligibility within the study. The Treatment Period consists of three monthly Experimental Sessions and associated Intervening Sessions of integrative behavioral psychotherapy. The Treatment Period lasts approximately 12 weeks. Following the Treatment Period is a Follow-up Period and Study Conclusion. During the Follow-up Period and Study Conclusion, participants complete 4 weeks with no study visits, followed by a Study Conclusion visit.
This study compares the effects of three blinded Experimental Sessions of psychotherapy in combination with flexible doses of MBDB or placebo administered as described below. Non-drug preparatory and intervening psychotherapy sessions are also included. Patient's weight is determined for dosage calculation. Initial dose is 180 mg unless this will result in a dosage of less than 1.5 mg/kg of patient weight. Initial dose thereby adjusted upward in 50 mg increments to deliver the lowest dose possible of at least 1.5 mg/kg of patient weight. Initial dose for Experimental Session 2 and 3 is cumulative dose calculated by adding the initial dose plus REMS protocol dose used the previous Experimental Session for each patient.
Randomization occurs prior to the initiation of Experimental Session 1. Each participant is provided the next randomized number in a sequence by a blinded study monitor. Participants are then randomized, according to a computer-generated randomization schedule, 1:1:1:1 to racemic MBDB, S-MBDB, R-MBDB, or placebo. […]

[2] = Physical stability of MBDB salts at 40° C./75% RH; type: physicochemical
Procedure: During the screen, a single crystal Maleate 1 of sufficient size and quality was obtained from a vapor diffusion experiment with ethanol and hexane. The crystal structure is reported elsewhere but the data confirmed the anhydrous/unsolved nature of the material. […] Two new crystalline forms of MBDB Maleate were observed during the screening designated as MBDB Maleate 2 and MBDB Maleate 3 (FIG. 96, 97). Additional characterization of these samples was conducted to better understand the nature of the materials produced, as shown below. MBDB Maleate 2 was generated once from a cooling crystallization from dioxane. The proton nuclear magnetic resonance (NMR) spectrum was consistent with a monomaleate salt of MBDB and contained residual dioxane. Only a limited amount of material was recovered so the only additional characterization that could be completed was differential scanning calorimetry (DSC). The DSC thermogram appears consistent with an anhydrous/unsolvated form with a likely melt at 96° C. (FIG. 100). […] An attempt was made to reproduce Maleate 2 using the same conditions and seeds of Maleate 2. PXRD analysis of the recovered solids however was consistent with Maleate 1. MBDB Maleate 3 was isolated from an evaporation experiment involving chloroform and ethyl acetate. NMR analysis of the material was consistent with a mono-maleate salt of MBDB. Thermal analysis was consistent with an anhydrous/unsolvated material with a likely melting point of 73° C. (FIG. 101). […] No additional characterization was completed on this sample due to the limited amount of material that was recovered.

[3] = Dynamic vapor sorption (DVS) analysis with post-DVS XRPD; type: physicochemical; conditions: for Hygroscopicity by DVS: 25° C., 5 to 95% RH; for Hygroscopic?: based on moisture uptake at 95% observed during DVS analysis; for Post-DVS XRPD (form change): solids after DVS analysis
Procedure: DVS analysis was carried out using a TA Instruments Q5000 Dynamic Vapor Sorption analyzer. The instrument was calibrated with standard weights and a sodium bromide standard for humidity. Approximately 5-25 mg of sample was loaded into a metal-coated quartz pan for analysis. The sample was analyzed at 25° C. with a maximum equilibration time of one hour in 10% relative humidity (RH) steps from 5 to 95% RH (adsorption cycle) and from 95 to 5% RH (desorption cycle). The movement from one step to the next occurred either after satisfying the equilibrium criterion of 0.01% weight change or, if the equilibrium criterion was not met, after one hour. The percent weight change values were calculated using Microsoft Excel®.

[4] = 5 mg/kg ip, continued anxiogenic effect

CCC(Cc1ccc2c(c1)OCO2)NC (racemic) [racemic MBDB]
Frequency of stretched attend postures (SAP) (Male Sprague-Dawley rats; [4]): reached significance
Frequency of stretched attend postures (SAP) (Male Sprague-Dawley rats; 10 mg/kg ip): consistent level of SAPs similar to the 5 mg/kg
Frequency of stretched attend postures (SAP) (Male Sprague-Dawley rats; 30 mg/kg ip): showed a trend toward significance
Dose showing a switch to an anxiolytic effect (magnitude of the reduction in SAPs) (Male Sprague-Dawley rats): 30 mg/kg
Change in CAPS-5 assessment [1]: significant mean reduction in CAPS-5 assessment compared to the placebo group
Daytime sleepiness (ESS) [1]: significant improvement in lessening daytime sleepiness
Clinician-rated functional impairment score (SDS) [1]: significant improvement in clinician-rated functional impairment score
Depression (HAM-D) [1]: significant improvement depression

CCC(Cc1ccc2c(c1)OCO2)NC.O=C(O)CCC(=O)O (single isomer, unassigned) [Succinate 1]
Physical Stability ([2]; 40° C./75% RH overnight): Tacky solids

CCC(Cc1ccc2c(c1)OCO2)NC.O=C(O)CCC(=O)O (single isomer, unassigned) [Succinate 2]
Hygroscopicity by DVS [3]: possible hydrate formation at high RH conditions
Hygroscopic? [3]: Moderately
Physical Stability ([2]; 40° C./75% RH overnight): No change

CCC(Cc1ccc2c(c1)OCO2)NC.O=C(O)CC(O)(CC(=O)O)C(=O)O (stereo not shown) [Citrate 1]
Physical Stability ([2]; 40° C./75% RH overnight): Tacky solids

CCC(Cc1ccc2c(c1)OCO2)NC.O=C(O)/C=C/C(=O)O (stereo not shown) [Fumarate 1]
Physical Stability ([2]; 40° C./75% RH overnight): No change

CCC(Cc1ccc2c(c1)OCO2)NC.O=C(O)[C@@H](O)[C@H](O)[C@H](O)[C@@H](O)C(=O)O (stereo not shown) [Galactarate 1]
Physical Stability ([2]; 40° C./75% RH overnight): No change

CCC(Cc1ccc2c(c1)OCO2)NC.O=C(O)CCC(=O)O (stereo not shown) [MBDB succinate Form 2]
Hygroscopicity by DVS [3]: moderately hygroscopic
Post-DVS XRPD (form change) [3]: no form change
Physical Stability ([2]; after 1 day at 40° C./75% RH): No visible change

CCC(Cc1ccc2c(c1)OCO2)NC.O=C(O)CC(=O)O (stereo not shown) [Malonate 1]
Physical Stability ([2]; 40° C./75% RH overnight): No change

CCC(Cc1ccc2c(c1)OCO2)NC.O=P(O)(O)O (stereo not shown) [Phosphate 1]
Hygroscopicity by DVS [3]: hygroscopic
Hygroscopic? [3]: Hygroscopic
Post-DVS XRPD (form change) [3]: no form change
Physical Stability ([2]; 40° C./75% RH overnight): No change
Physical Stability ([2]; after 1 day at 40° C./75% RH): No visible change

CC[C@H](Cc1ccc2c(c1)OCO2)NC [R-MBDB]
Frequency of stretched attend postures (SAP) (Male Sprague-Dawley rats; 10 mg/kg ip): consistent level of SAPs similar to the 5 mg/kg
Frequency of stretched attend postures (SAP) (Male Sprague-Dawley rats; 15 mg/kg ip): reduction in the number of SAPs compared to lower doses
Frequency of stretched attend postures (SAP) (Male Sprague-Dawley rats; 30 mg/kg ip): decreased the frequency of SAPs as effectively as the benzodiazepine chlordiazepoxide
Frequency of stretched attend postures (SAP) (Male Sprague-Dawley rats; 30 mg/kg ip, listed as R MBDB): significantly reduced the number of SAPs
Dose showing a switch to an anxiolytic effect (magnitude of the reduction in SAPs) (Male Sprague-Dawley rats): 15 mg/kg
Change in CAPS-5 assessment [1]: significant mean reduction in CAPS-5 assessment compared to the placebo group
Daytime sleepiness (ESS) [1]: significant improvement in lessening daytime sleepiness
Clinician-rated functional impairment score (SDS) [1]: significant improvement in clinician-rated functional impairment score
Depression (HAM-D) [1]: significant improvement depression
Total dosage of drug to achieve significant mean reduction in CAPS-5 [1]: lower total dosage of drug compared to the racemic MBDB-treated subgroup

CC[C@@H](Cc1ccc2c(c1)OCO2)NC [S-MBDB]
Frequency of stretched attend postures (SAP) (Male Sprague-Dawley rats; [4]): reached significance
Frequency of stretched attend postures (SAP) (Male Sprague-Dawley rats; 10 mg/kg ip): rapid reduction in total SAPs
Frequency of stretched attend postures (SAP) (Male Sprague-Dawley rats; 15 mg/kg ip): reduction in the number of SAPs compared to lower doses
Frequency of stretched attend postures (SAP) (Male Sprague-Dawley rats; 30 mg/kg ip): decreased the frequency of SAPs as effectively as the benzodiazepine chlordiazepoxide
Magnitude of the reduction in SAPs among MBDB forms (Male Sprague-Dawley rats; 30 mg/kg ip): greatest
Frequency of stretched attend postures (SAP) (Male Sprague-Dawley rats; 30 mg/kg ip, listed as S MBDB): significantly reduced the number of SAPs
Dose showing a switch to an anxiolytic effect (magnitude of the reduction in SAPs) (Male Sprague-Dawley rats): 10 mg/kg
Change in CAPS-5 assessment [1]: significant mean reduction in CAPS-5 assessment compared to the placebo group
Daytime sleepiness (ESS) [1]: significant improvement in lessening daytime sleepiness
Clinician-rated functional impairment score (SDS) [1]: significant improvement in clinician-rated functional impairment score
Depression (HAM-D) [1]: significant improvement depression
Adverse anxiogenic incidents ([1]; vs placebo-treated controls): without a significant increase in adverse anxiogenic incidents
Total dosage of drug to achieve significant mean reduction in CAPS-5 [1]: lower total dosage of drug compared to the racemic MBDB-treated subgroup

CCC(Cc1ccc2c(c1)OCO2)NC.O=S(=O)(O)O (stereo not shown) [Sulfate 1]
Physical Stability ([2]; 40° C./75% RH overnight): Deliquesced

CCC(Cc1ccc2c(c1)OCO2)NC.Cc1ccc(S(=O)(=O)O)cc1 (stereo not shown) [Tosylate 1]
Physical Stability ([2]; 40° C./75% RH overnight): No change
